Data: US11384073B2, “Maleate salt of benzothiophene compound, crystalline form thereof, and use thereof” (SHANGHAI INSTITUTE OF MATERIA MEDICA, CHINESE ACADEMY OF …, priority 2018, dated 2022)
Converted amounts (≈) assume the structure as drawn. Where two headings read alike, the source gives them in different places.

Tests used:
[1] = Comparison of hygroscopicity; type: physicochemical; conditions: relative humidity 92.5%, 96 hours; for Moisture gain: room temperature
Experimental: The basic compound of compound Z (Example 1) and the different salts of compound Z (Examples 2, 4-6, 9) were studied for their hygroscopicity. A certain amount of the test sample was placed in a precisely weighed glass weighing bottle with a stopper, and weighed accurately. The weighing bottle was openly placed in a desiccator (a saturated potassium nitrate solution was placed in the lower part, with a relative humidity of 92.5%), and kept at room temperature for 96 hours, and then the weighing bottle was covered with the stopper and weighed accurately. The moisture gain was calculated.

[2] = Comparison of stability (Factors influencing test)
[3] = Comparison of solubility of the compounds; type: physicochemical
Experimental: An appropriate amount of a sample was weighted in a glass tube, the selected solvent was added thereto in a gradient and the resultant was observed until it became clear.

[4] = Comparison of appearance and compositions of the compounds; type: physicochemical
Description: The basic compound of compound Z (Example 1) was compared with the different salts of compound Z (Examples 2, 6-12) for their appearance, compositions, crystalline forms, etc., and the results are shown in the following table: […]

Wistar rats = assay: Acute toxicity experiments in rats; type: in vivo
Experimental: Wistar rats were randomly divided into 3 groups with 10 rats in each group. The animals were fasted for 12 hours before the administration, and the muscle relaxation state of the animals was observed 1 hour after the administration. The animal's two forepaws were gripped on a 40 cm-high hemp rope for testing for three times. The case in which the animal could put the hind paws on the rope within 15 s for two or more times was regarded as no muscle relaxation. Otherwise, it was regarded as muscle relaxation. After each animal's muscle relaxation test, a catalepsy experiment was performed, and the “grip rod” experiment method was used to determine the rat's rigidity duration. The rat's two forepaws were gently put on a small rod to test the duration time that the rats maintained their two forepaws on the rod in a 45-degree posture. […] If the rat's forepaw had not been put down, the observation was terminated at 180 s.

[5] = High temperature (60° C.), Day 2
[6] = Illumination (4500 lx ± 500 lx), Day 2

Row | Compound | Moisture gain [1] | Purity ([2]; Day 0) | Purity [2, 5] | Purity [2, 6] | Composition [4] | Crystal water [4] | Static electricity [4] | Hygroscopicity (in words) [1] | further results
1 | O=c1ccc2ccc(CCN3CCN(c4cccc5sccc45)CC3)cc2[nH]1 [Compound Z, 7-(2-(4-(benzo[b]thiophen-4-yl)piperazin-1-yl)ethyl)quinoline-2(1H)-one] | −0.16% | 98.07% | 98.03% | 98.01% | constant | No | No |  | Stability (in words) ([2]; under high temperature and illumination conditions): high stability; Solubility in deionized water (comparison in words) ([3]; Deionized water): significantly lower than those of the salts of compound Z; Solubility ([3]; buffer pH 2, aqueous buffer, thermodynamic from solid, buffer with pH = 2, read-out: Solubility): 6.8 µg/mL (≈ 17.5 µM); Solubility ([3]; buffer pH 4.5, aqueous buffer, thermodynamic from solid, buffer with pH = 4.5, read-out: Solubility): 0.7 µg/mL (≈ 1.8 µM); Acute toxicity, recovery and animal deaths (comparison in words) (Wistar rats; dose of 200 mg/kg): the highest toxicity, the slowest recovery, and the most animal deaths
2 | O=C(O)/C=C/C(=O)O.O=c1ccc2ccc(CCN3CCN(c4cccc5sccc45)CC3)cc2[nH]1 [Fumarate of compound Z, Fumarate of 7-(2-(4-(benzo[b]thiophen-4-yl)piperazin-1-yl)ethyl)quinoline-2(1H)-one] |  |  |  |  | constant | No | No |  | Solubility ([3]; Deionized water): 117.6 µg/mL; Solubility ([3]; buffer with pH = 2): 2.0 µg/mL; Solubility ([3]; buffer with pH = 4.5): 1.8 µg/mL
3 | CS(=O)(=O)O.O=c1ccc2ccc(CCN3CCN(c4cccc5sccc45)CC3)cc2[nH]1 [Methanesulfonate of compound Z, Methanesulfonate of 7-(2-(4-(benzo[b]thiophen-4-yl)piperazin-1-yl)ethyl)quinoline-2(1H)-one] | 1.74% | 98.60% | 98.47% | 98.54% |  |  |  | relatively high hygroscopicity | Animal status after single administration (rigidity/muscle relaxation) (Wistar rats; gavage 200 mg/kg, 10 per group, Day 7): 5 normal
4 | Cl.O.O=c1ccc2ccc(CCN3CCN(c4cccc5sccc45)CC3)cc2[nH]1 [Monohydrochloride of compound Z, Monohydrochloride Monohydrate of 7-(2-(4-(benzo[b]thiophen-4-yl)piperazin-1-yl)ethyl)quinoline-2(1H)-one] | 7.01% |  |  |  |  |  |  | relatively high hygroscopicity | 
5 | O=P(O)(O)O.O=c1ccc2ccc(CCN3CCN(c4cccc5sccc45)CC3)cc2[nH]1 [Phosphate of compound Z, Phosphate of 7-(2-(4-(benzo[b]thiophen-4-yl)piperazin-1-yl)ethyl)quinoline-2(1H)-one] |  |  |  |  | constant | No | No |  | Solubility ([3]; Deionized water): 181.2 µg/mL; Solubility ([3]; buffer with pH = 2): 2.8 µg/mL; Solubility ([3]; buffer with pH = 4.5): 0.1 µg/mL
6 | O=C(O)CCC(=O)O.O=c1ccc2ccc(CCN3CCN(c4cccc5sccc45)CC3)cc2[nH]1 [Succinate of compound Z, Succinate of 7-(2-(4-(benzo[b]thiophen-4-yl)piperazin-1-yl)ethyl)quinoline-2(1H)-one] | 2.02% | 98.95% | 99.93% | 99.92% |  |  |  |  | 
7 | Citrate of 7-(2-(4-(benzo[b]thiophen-4-yl)piperazin-1-yl)ethyl)quinoline-2(1H)-one [Citrate of compound Z] | 0.53% |  |  |  | constant | No | No | lower hygroscopicity | 
